Experimental data taken from patent US20100048696A1, “AGRICULTURAL DISEASE CONTROL AGENT” (Idemitsu Kosan Co., Ltd., priority 2007, published 2010).
Read-outs that look alike come from different tables or passages of the source.

Assays:
Type in all cases: cell-based
Conditions in all cases: 5 minutes
Pyricularia oryzae = tested on: Pyricularia oryzae
Burkholderia plantarii = test: Material disinfection test
Rhizoctonia solani = test: Material disinfection test
Pythium ultimum = test: Material disinfection test
Botrytis cinerea = test: Material disinfection test
Erwinia chrysanthemi = test: Material disinfection test
Ralstonia solanacearum = tested on: Ralstonia solanacearum
Fusarium oxysporum = test: Material disinfection test
Burkholderia glumae = test: Material disinfection test

Row | SMILES | average value of viable filamentous fungi counts on all materials examined (Pyricularia oryzae; 10 times solution sprayed) | average value of viable filamentous fungi counts on all materials examined (Pyricularia oryzae; 50 times solution sprayed) | Average value of viable bacteria counts on all materials examined (Burkholderia plantarii; 10 times solution sprayed) | Average value of viable bacteria counts on all materials examined (Burkholderia plantarii; 50 times solution sprayed) | average value of viable filamentous fungi counts on all materials examined (Rhizoctonia solani; 10 times solution sprayed) | average value of viable filamentous fungi counts on all materials examined (Rhizoctonia solani; 50 times solution sprayed) | average value of viable filamentous fungi counts on all materials examined (Pythium ultimum; 10 times solution sprayed) | average value of viable filamentous fungi counts on all materials examined (Pythium ultimum; 50 times solution sprayed) | average value of viable filamentous fungi counts on all materials examined (Botrytis cinerea; 10 times solution sprayed) | average value of viable filamentous fungi counts on all materials examined (Botrytis cinerea; 50 times solution sprayed) | Average value of viable bacteria counts on all materials examined (Erwinia chrysanthemi; 10 times solution sprayed) | Average value of viable bacteria counts on all materials examined (Erwinia chrysanthemi; 50 times solution sprayed) | Average value of viable bacteria counts on all materials examined (Ralstonia solanacearum; 10 times solution sprayed) | Average value of viable bacteria counts on all materials examined (Ralstonia solanacearum; 50 times solution sprayed) | average value of viable filamentous fungi counts on all materials examined (Fusarium oxysporum; 10 times solution sprayed) | average value of viable filamentous fungi counts on all materials examined (Fusarium oxysporum; 50 times solution sprayed) | Average value of viable bacteria counts on all materials examined (Burkholderia glumae; 10 times solution sprayed) | Average value of viable bacteria counts on all materials examined (Burkholderia glumae; 50 times solution sprayed)
1 | O=C(O)CC(O)C(=O)O (centres unmarked) [Malic acid] | 4.6 × 10^4 cfu/ml | 5.0 × 10^4 cfu/ml | 1.0 × 10^7 cfu/ml | 3.2 × 10^7 cfu/ml | 2.1 × 10^5 cfu/ml | 1.8 × 10^5 cfu/ml | 2.5 × 10^4 cfu/ml | 4.3 × 10^4 cfu/ml | 3.7 × 10^5 cfu/ml | 2.9 × 10^5 cfu/ml | 1.4 × 10^8 cfu/ml | 1.2 × 10^8 cfu/ml | 9.5 × 10^8 cfu/ml | 7.8 × 10^8 cfu/ml | 1.8 × 10^5 cfu/ml | 4.5 × 10^5 cfu/ml | 3.6 × 10^8 cfu/ml | 5.2 × 10^8 cfu/ml
2 | O=C(O)CCC(=O)O [Succinic acid] | 3.2 × 10^4 cfu/ml | 3.1 × 10^4 cfu/ml | 2.5 × 10^7 cfu/ml | 2.6 × 10^7 cfu/ml | 1.5 × 10^5 cfu/ml | 2.1 × 10^5 cfu/ml | 7.8 × 10^3 cfu/ml | 3.0 × 10^4 cfu/ml | 3.5 × 10^5 cfu/ml | 4.3 × 10^5 cfu/ml | 1.0 × 10^8 cfu/ml | 1.0 × 10^8 cfu/ml | 1.1 × 10^9 cfu/ml | 8.5 × 10^8 cfu/ml | 2.3 × 10^5 cfu/ml | 4.5 × 10^5 cfu/ml | 1.0 × 10^8 cfu/ml | 1.5 × 10^8 cfu/ml
3 | O=C(O)CC(O)(CC(=O)O)C(=O)O [Citric acid] |  | 3.2 × 10^4 cfu/ml | 3.8 × 10^7 cfu/ml | 1.0 × 10^7 cfu/ml | 2.0 × 10^5 cfu/ml | 1.7 × 10^5 cfu/ml | 2.8 × 10^4 cfu/ml | 1.7 × 10^4 cfu/ml | 2.6 × 10^5 cfu/ml | 4.6 × 10^5 cfu/ml | 1.7 × 10^8 cfu/ml | 1.9 × 10^8 cfu/ml | 1.1 × 10^9 cfu/ml | 1.5 × 10^9 cfu/ml | 3.7 × 10^5 cfu/ml | 3.4 × 10^5 cfu/ml | 2.6 × 10^8 cfu/ml | 1.7 × 10^8 cfu/ml
